The NIST ThermoML archive (doi:10.1016/j.jct.2005.10.002)
“And” between values parts separate entries of the source, which are not always exact repeats. Equal entries are not always repeated. Numbers after ± are expanded uncertainties.

Settings: Liquid; for mass density: 101.33 kPa

CCC(C)(O)CC [3-methyl-3-pentanol]
Settings	mass density
278.15 K	840.5 ± 0.7 kg/m3 and 841 ± 0.7 kg/m3
279.15 K	839.7 ± 0.7 kg/m3 and 840.2 ± 0.7 kg/m3
280.15 K	838.9 ± 0.7 kg/m3 and 839.4 ± 0.7 kg/m3
281.15 K	838.1 ± 0.7 kg/m3 and 838.5 ± 0.7 kg/m3
282.15 K	837.2 ± 0.7 kg/m3 and 837.7 ± 0.7 kg/m3
283.15 K	836.4 ± 0.7 kg/m3 and 836.8 ± 0.7 kg/m3
284.15 K	835.6 ± 0.7 kg/m3 and 836 ± 0.7 kg/m3
285.15 K	834.8 ± 0.7 kg/m3 and 835.2 ± 0.7 kg/m3
286.15 K	833.9 ± 0.7 kg/m3 and 834.4 ± 0.7 kg/m3
287.15 K	833.5 ± 0.7 kg/m3 and 833.1 ± 0.7 kg/m3
288.15 K	832.7 ± 0.7 kg/m3 and 832.3 ± 0.7 kg/m3
289.15 K	831.9 ± 0.7 kg/m3 and 831.4 ± 0.7 kg/m3
290.15 K	831 ± 0.7 kg/m3 and 830.6 ± 0.7 kg/m3
291.15 K	830.1 ± 0.7 kg/m3 and 829.7 ± 0.7 kg/m3
292.15 K	829.3 ± 0.7 kg/m3 and 828.9 ± 0.7 kg/m3
293.15 K	828.5 ± 0.7 kg/m3 and 828 ± 0.7 kg/m3
294.15 K	827.6 ± 0.7 kg/m3 and 827.1 ± 0.7 kg/m3
295.15 K	826.7 ± 0.7 kg/m3 and 826.3 ± 0.7 kg/m3
296.15 K	825.9 ± 0.7 kg/m3 and 825.4 ± 0.7 kg/m3
297.15 K	825 ± 0.7 kg/m3 and 824.5 ± 0.7 kg/m3
298.15 K	824.1 ± 0.7 kg/m3 and 823.6 ± 0.7 kg/m3
299.15 K	823.2 ± 0.7 kg/m3 and 822.8 ± 0.7 kg/m3
300.15 K	822.3 ± 0.7 kg/m3 and 821.9 ± 0.7 kg/m3
301.15 K	821.5 ± 0.7 kg/m3 and 821 ± 0.7 kg/m3
302.15 K	820.6 ± 0.7 kg/m3 and 820.1 ± 0.7 kg/m3
303.15 K	819.7 ± 0.7 kg/m3 and 819.2 ± 0.7 kg/m3
304.15 K	818.8 ± 0.7 kg/m3 and 818.3 ± 0.7 kg/m3
305.15 K	817.9 ± 0.7 kg/m3 and 817.4 ± 0.7 kg/m3
306.15 K	816.9 ± 0.7 kg/m3 and 816.5 ± 0.7 kg/m3
307.15 K	816 ± 0.7 kg/m3 and 815.5 ± 0.7 kg/m3
308.15 K	815.1 ± 0.7 kg/m3 and 814.6 ± 0.7 kg/m3
309.15 K	814.2 ± 0.7 kg/m3 and 813.7 ± 0.7 kg/m3
310.15 K	813.3 ± 0.7 kg/m3 and 812.8 ± 0.7 kg/m3
311.15 K	812.3 ± 0.7 kg/m3 and 811.8 ± 0.7 kg/m3
312.15 K	811.4 ± 0.7 kg/m3 and 810.9 ± 0.7 kg/m3
313.15 K	810.5 ± 0.7 kg/m3 and 810 ± 0.7 kg/m3
314.15 K	809.5 ± 0.7 kg/m3 and 809 ± 0.7 kg/m3
315.15 K	808.6 ± 0.7 kg/m3 and 808.1 ± 0.7 kg/m3
316.15 K	807.6 ± 0.7 kg/m3 and 807.1 ± 0.7 kg/m3
317.15 K	806.7 ± 0.7 kg/m3 and 806.2 ± 0.7 kg/m3
318.15 K	805.7 ± 0.7 kg/m3 and 805.2 ± 0.7 kg/m3
319.15 K	804.8 ± 0.7 kg/m3 and 804.3 ± 0.7 kg/m3
320.15 K	803.8 ± 0.7 kg/m3 and 803.3 ± 0.7 kg/m3
321.15 K	802.8 ± 0.7 kg/m3 and 802.3 ± 0.7 kg/m3
322.15 K	801.9 ± 0.7 kg/m3 and 801.3 ± 0.7 kg/m3
323.15 K	800.9 ± 0.7 kg/m3 and 800.4 ± 0.7 kg/m3
324.15 K	799.9 ± 0.7 kg/m3 and 799.4 ± 0.7 kg/m3
325.15 K	798.9 ± 0.7 kg/m3 and 798.4 ± 0.7 kg/m3
326.15 K	798 ± 0.7 kg/m3 and 797.4 ± 0.7 kg/m3
327.15 K	797 ± 0.7 kg/m3 and 796.4 ± 0.7 kg/m3
328.15 K	796 ± 0.7 kg/m3 and 795.4 ± 0.7 kg/m3
329.15 K	795 ± 0.7 kg/m3 and 794.4 ± 0.7 kg/m3
330.15 K	794 ± 0.8 kg/m3 and 793.4 ± 0.8 kg/m3
331.15 K	793 ± 0.8 kg/m3 and 792.4 ± 0.8 kg/m3
332.15 K	792 ± 0.8 kg/m3 and 791.4 ± 0.8 kg/m3
333.15 K	791 ± 0.8 kg/m3 and 790.4 ± 0.8 kg/m3
334.15 K	789.9 ± 0.8 kg/m3 and 789.4 ± 0.8 kg/m3
335.15 K	788.9 ± 0.8 kg/m3 and 788.4 ± 0.8 kg/m3
336.15 K	787.9 ± 0.8 kg/m3 and 787.4 ± 0.8 kg/m3
337.15 K	786.9 ± 0.8 kg/m3 and 786.4 ± 0.8 kg/m3
338.15 K	785.9 ± 0.8 kg/m3 and 785.3 ± 0.8 kg/m3
339.15 K	784.3 ± 0.8 kg/m3
340.15 K	783.3 ± 0.8 kg/m3
341.15 K	782.3 ± 0.8 kg/m3
342.15 K	781.2 ± 0.8 kg/m3
343.15 K	780.2 ± 0.8 kg/m3
344.15 K	779.1 ± 0.8 kg/m3
345.15 K	778.1 ± 0.8 kg/m3
346.15 K	777.1 ± 0.8 kg/m3
347.15 K	776 ± 0.8 kg/m3
348.15 K	775 ± 0.8 kg/m3
349.15 K	773.9 ± 0.8 kg/m3
350.15 K	772.9 ± 0.8 kg/m3
351.15 K	771.8 ± 0.8 kg/m3
352.15 K	770.7 ± 0.8 kg/m3
353.15 K	769.7 ± 0.8 kg/m3
354.15 K	768.6 ± 0.8 kg/m3
355.15 K	767.6 ± 0.8 kg/m3
356.15 K	766.5 ± 0.8 kg/m3
357.15 K	765.4 ± 0.8 kg/m3
358.15 K	764.4 ± 0.8 kg/m3
359.15 K	763.3 ± 0.8 kg/m3
360.15 K	762.2 ± 0.8 kg/m3
361.15 K	761.1 ± 0.8 kg/m3
362.15 K	760.1 ± 0.8 kg/m3
363.15 K	759 ± 0.8 kg/m3
364.15 K	757.9 ± 0.8 kg/m3
365.15 K	756.8 ± 0.8 kg/m3
366.15 K	755.7 ± 0.8 kg/m3
367.15 K	754.6 ± 0.8 kg/m3
368.15 K	753.5 ± 0.8 kg/m3

speed of sound [m/s]
Settings	303.15 K	313.15 K	323.15 K	333.15 K	343.15 K	353.15 K	363.15 K	373.15 K
100 kPa	1230.7 ± 3.5	1192.7 ± 3.4	1154.4 ± 3.3	1115.7 ± 3.3	1077.3 ± 3.2	1037.7 ± 3.1	998.2 ± 3	957.7 ± 2.9
10000 kPa	1290.1 ± 3.7	1254.9 ± 3.6	1219.2 ± 3.5	1183.6 ± 3.4	1148 ± 3.3	1111.6 ± 3.2	1076.2 ± 3.2	1039.5 ± 3.1
20000 kPa	1344.9 ± 3.8	1311.8 ± 3.7	1278.7 ± 3.6	1245 ± 3.6	1211.1 ± 3.5	1177.7 ± 3.4	1144.6 ± 3.3	1110.9 ± 3.2
30000 kPa	1396.1 ± 3.9	1365 ± 3.8	1332.4 ± 3.8	1300.4 ± 3.7	1268.5 ± 3.6	1236.9 ± 3.5	1205.4 ± 3.5	1174 ± 3.4
40000 kPa	1443.3 ± 4	1412.6 ± 3.9	1382.1 ± 3.9	1351.9 ± 3.8	1321.7 ± 3.7	1291.4 ± 3.7	1261.4 ± 3.6	1231.1 ± 3.5
50000 kPa	1487.1 ± 4.1	1457.9 ± 4.1	1428.9 ± 4	1399.7 ± 3.9	1370.5 ± 3.8	1342.1 ± 3.8	1312.6 ± 3.7	1283.7 ± 3.6
60000 kPa	1529.7 ± 4.2	1500.4 ± 4.2	1472.8 ± 4.1	1444.4 ± 4	1416 ± 4	1387.8 ± 3.9	1359.8 ± 3.8	1332 ± 3.8
70000 kPa	1568.8 ± 4.3	1540.7 ± 4.2	1513.6 ± 4.2	1486.1 ± 4.1	1458.4 ± 4.1	1431.2 ± 4	1404.8 ± 3.9	1377.5 ± 3.9
80000 kPa	1606.2 ± 4.4	1578.9 ± 4.3	1552.8 ± 4.3	1525.6 ± 4.2	1499.4 ± 4.2	1472.7 ± 4.1	1446.9 ± 4	1420.3 ± 4
90000 kPa	1641.7 ± 4.5	1615 ± 4.4	1589.9 ± 4.4	1563.8 ± 4.3	1537.9 ± 4.2	1511.9 ± 4.2	1486.5 ± 4.1	1461.1 ± 4.1
100000 kPa	1675.9 ± 4.6	1650 ± 4.5	1624.9 ± 4.4	1599.9 ± 4.4	1574.6 ± 4.3	1549.3 ± 4.3	1524.4 ± 4.2	1499.3 ± 4.2

CCC(O)CC [3-pentanol]
speed of sound [m/s]
Settings	303.15 K	313.15 K	323.15 K	333.15 K	343.15 K	353.15 K	363.15 K	373.15 K
100 kPa	1234.7 ± 3.4	1194.7 ± 3.3	1155.2 ± 3.2	1115.9 ± 3.1	1076.8 ± 3	1036.7 ± 3	997.3 ± 2.9	957.2 ± 2.8
10000 kPa	1294 ± 3.6	1257 ± 3.5	1219.2 ± 3.4	1182.2 ± 3.3	1146.9 ± 3.2	1110.4 ± 3.1	1075.3 ± 3	1038.9 ± 3
20000 kPa	1348.2 ± 3.7	1313 ± 3.6	1277.9 ± 3.5	1243.1 ± 3.4	1209.7 ± 3.4	1176.2 ± 3.3	1143.2 ± 3.2	1109.6 ± 3.1
30000 kPa	1397.7 ± 3.8	1364.7 ± 3.7	1331 ± 3.7	1298.2 ± 3.6	1266.6 ± 3.5	1234.1 ± 3.4	1203.5 ± 3.3	1171.5 ± 3.3
40000 kPa	1443.6 ± 3.9	1411.9 ± 3.8	1380.2 ± 3.8	1348.6 ± 3.7	1318.2 ± 3.6	1287.8 ± 3.6	1258.2 ± 3.5	1228.3 ± 3.4
50000 kPa	1486.9 ± 4	1456 ± 4	1425.8 ± 3.9	1395.9 ± 3.8	1366.4 ± 3.7	1337.3 ± 3.7	1308.3 ± 3.6	1280.1 ± 3.5
60000 kPa	1526 ± 4.1	1498.1 ± 4.1	1468.5 ± 4	1439.4 ± 3.9	1411.1 ± 3.8	1383.1 ± 3.8	1355.1 ± 3.7	1328.2 ± 3.6
70000 kPa	1564.7 ± 4.2	1537.4 ± 4.2	1508.9 ± 4.1	1480.7 ± 4	1453.1 ± 3.9	1425.8 ± 3.9	1399.6 ± 3.8	1373.1 ± 3.8
80000 kPa	1600.5 ± 4.3	1574.5 ± 4.2	1547.2 ± 4.2	1519.8 ± 4.1	1492.9 ± 4	1466.6 ± 4	1440.8 ± 3.9	1415 ± 3.9
90000 kPa	1636.4 ± 4.4	1610.2 ± 4.3	1583.6 ± 4.3	1556.9 ± 4.2	1530.7 ± 4.1	1505 ± 4.1	1479.7 ± 4	1454.6 ± 4
100000 kPa	1668.2 ± 4.5	1644.1 ± 4.4	1618.6 ± 4.3	1592.2 ± 4.3	1566.6 ± 4.2	1541.4 ± 4.2	1516.9 ± 4.1	1492.5 ± 4
